According to US20260355323A1, “CEREBLON-RECRUITING BCL-XL/BCL-2 DUAL DEGRADERS” (University of Florida Research Foundation, Incorporated, priority 2022, published 2026):

Legend:
[1] = system: platelets; details: animals and/or humans; cited from earlier work
[2] = system: venetoclax resistant CLL cells; details: cited from earlier work
[3] = system: MOLT-4 acute lymphoblastic leukemia cells; assay: Cell viability, tetrazolium-based MTS assay, MOLT-4; details: Homo sapiens, MOLT-4, 48 h; read-out: Anti-Cancer Activity EC50 (48 hr), MOLT-4
Experimental: (§1) Acute lymphoblastic leukemia cells (MOLT-4 and RS4;11) were incubated with increasing concentrations of Bcl-xL/Bcl-2 degraders for 48 h. Cell viability was measured by tetrazolium-based MTS assay.

[4] = system: RS4;11 acute lymphoblastic leukemia cells; assay: Cell viability, tetrazolium-based MTS assay, RS4;11; details: Homo sapiens, RS4;11, 48 h, read-out: Anti-Cancer Activity EC50 (48 hr), RS4
Experimental: as §1

[5] = system: HUVEC irradiation-induced senescent cells (IR-SC); assay: Senolytic activity, cell viability (PrestoBlue HS), HUVEC IR-SC; format: cell-based; details: Homo sapiens, 72 h
Experimental: To induce senescence in WI-38 and HUVEC, cells were subjected to x-ray irradiation at 20 Gray using X-RAD 320 biological irradiator. Following between 10 to 15 days after irradiation, senescence was induced in cells, and irradiation-induced senescent cells (IR-SC) were then used for cell viability and Western blotting tests.
(§2) WI-38 and HUVEC cells were incubated with increasing concentrations of degraders for 72 h. Cell viability was measured using PrestoBlue HS cell viability reagent.

[6] = system: HUVEC NC; assay: Senolytic activity, cell viability (PrestoBlue HS), HUVEC NC; format: cell-based
Experimental: as §2

[7] = system: WI-38 irradiation-induced senescent cells (IR-SC); assay: Senolytic activity, cell viability (PrestoBlue HS), WI-38 IR-SC; format: cell-based; details: Homo sapiens, 72 h
Method in brief: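 WI-38 and HUVEC were made senescent by 20 Gy x-ray irradiation and used 10–15 days later. Senescent cells were exposed to increasing degrader concentrations for 72 h. Viability was read with PrestoBlue HS.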

[8] = system: WI-38 NC; assay: Senolytic activity, cell viability (PrestoBlue HS), WI-38 NC; format: cell-based; details: Homo sapiens, 72 h
Experimental: as §2

[9] = biological target: T1, Bcl-xL (Homo sapiens, UniProt Q07817); assay: Bcl-xL protein degradation in Jurkat cells (immunoblot); format: cell-based; details: 16 h
T1 construct: immunoblot after 16 h degrader treatment
Experimental: (§3) Jurkat and Hela cells were incubated with increasing concentrations of test compounds for 16 h. The cells were harvested and lysed in RIPA lysis buffer supplemented with protease and phosphatase inhibitor cocktails. An equal amount of protein (20 μg/lane) was resolved on a pre-cast 4-20% SDS-PAGE gel. Proteins were subsequently transferred to NOVEX PVDF membranes by electrophoresis. The membranes were blocked in blocking buffer (5% non-fat dry milk in TBS-T), and incubated with primary antibodies (at optimized concentrations) overnight at 4° C. After three washings in TBS-T, the membranes were incubated with an appropriate FIRP-conjugated secondary antibody for 1 h at room temperature. After extensive washing for three times, the proteins of interest were detected with ECL western blotting detection reagents and recorded with autoradiography (Pierce Biotech, Rockford, IL, USA). The primary antibodies for Bcl-xL (Cat #2762), Bcl-2 (Cat #2872), Bcl-w (Cat #2724) and β-actin (Cat #4970) were purchased from Cell Signaling Technology. The relative band intensity was measured using ImageJ software and normalized to β-actin.

[10] = biological target: T1, Bcl-xL; assay: Bcl-xL protein degradation in Hela cells (immunoblot); format: cell-based; details: 16 h
Experimental: as §3

T1 sequence (Q07817 whole entry): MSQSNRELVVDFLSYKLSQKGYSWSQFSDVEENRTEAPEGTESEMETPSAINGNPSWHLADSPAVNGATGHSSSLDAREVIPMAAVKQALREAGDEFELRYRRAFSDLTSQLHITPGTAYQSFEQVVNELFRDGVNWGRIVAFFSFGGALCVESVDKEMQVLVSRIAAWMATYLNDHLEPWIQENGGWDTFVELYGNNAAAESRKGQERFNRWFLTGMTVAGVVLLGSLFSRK
T1 sequence (Q96SW2 whole entry partner): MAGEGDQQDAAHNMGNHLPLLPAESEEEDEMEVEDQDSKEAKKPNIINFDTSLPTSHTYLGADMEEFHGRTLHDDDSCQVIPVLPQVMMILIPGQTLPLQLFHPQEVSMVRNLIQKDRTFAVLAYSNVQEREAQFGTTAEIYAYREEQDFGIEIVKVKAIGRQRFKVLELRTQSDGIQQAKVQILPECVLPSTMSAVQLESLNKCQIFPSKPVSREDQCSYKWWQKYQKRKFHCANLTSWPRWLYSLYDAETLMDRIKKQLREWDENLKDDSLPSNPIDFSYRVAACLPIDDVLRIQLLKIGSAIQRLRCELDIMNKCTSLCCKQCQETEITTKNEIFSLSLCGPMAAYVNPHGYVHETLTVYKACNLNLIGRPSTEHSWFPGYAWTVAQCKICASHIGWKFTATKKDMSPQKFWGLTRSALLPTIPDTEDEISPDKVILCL

Row | SMILES | dose-limiting thrombocytopenia [1] | efficacy in killing venetoclax resistant CLL cells [2] | EC50 [3] | EC50 [4] | EC50 [5] | Senolytic Activity EC50 (72 hr), HUVEC NC [6] | EC50 [7] | EC50 [8] | degradation of Bcl-xL [9] | degradation of Bcl-xL [10]
1 | CC1(C)CCC(c2ccc(Cl)cc2)=C(CN2CCN(c3ccc(C(=O)NS(=O)(=O)c4ccc(N[C@H](CCN5CCOCC5)CSc5ccccc5)c(S(=O)(=O)C(F)(F)F)c4)cc3)CC2)C1 [ABT-263, navitoclax] | dose-limiting thrombocytopenia has been observed | high efficacy | – | – | – | – | – | – | – | –
2 | C[C@@]1(CN2CCC(CN3CCCN(c4ccc5c(c4)CN(C4CCC(=O)NC4=O)C5=O)CC3)CC2)CCC(c2ccc(Cl)cc2)=C(CN2CCN(c3ccc(C(=O)NS(=O)(=O)c4ccc(N[C@H](CCN5CCCOCC5)CSc5ccccc5)c(S(=O)(=O)C(F)(F)F)c4)cc3)CC2)C1 (stereo partly drawn) [Compound 44, N-((4-(((R)-4-(1,4-oxazepan-4-yl)-1-(phenylthio)butan-2-yl)amino)-3-((trifluoromethyl)sulfonyl)phenyl)sulfonyl)-4-(4-(((4R)-4′-chloro-4-((4-((4-(2-(2,6-dioxopiperidin-3-yl)-1-oxoisoindolin-5-yl)-1,4-diazepan-1-yl)methyl)piperidin-1-yl)methyl)-4-methyl-3,4,5,6-tetrahydro-[1,1′-biphenyl]-2-yl)methyl)piperazin-1-yl)benzamide] | – | – | < 1 nM | < 1 nM | < 1 nM | ++ (100-10 μM) | 1 to 10 nM | > 10000 nM | degrade Bcl-xL in a dose-dependent manner | degrade Bcl-xL in a dose-dependent manner
